Experimental data taken from patent US8053627B2, “Methods for treating demyelination disorders” (University of Chicago, priority 2005, dated 2011).
“And” between values parts separate entries of the source, which are not always exact repeats. Equal values may be shown once. Read-outs that look alike come from different tables or passages of the source.

Columns and labels:
[1] = test system: EAE-induced demyelination; conditions: for Mean of maximum clinical score (mean ± S.D.): 0–5 point scale; for Day of onset of disease (PID: postimmunization day): n = 25; for CD3 T cell infiltration in the lumbar spinal cord / EAE-induced demyelination: myelin, axons and oligodendrocytes in the lumbar spinal cord: PID 17
[2] = test system: Hippocampal organotypic cultures; assay: Hippocampal organotypic cultures (HOC), in vitro model of myelination, MBP Western blot; format: cell-based; conditions: 7 days of 100 U/ml IFN-γ exposure
Experimental: HOCs, were prepared and maintained as described previously (Kunkler and Kraig (1997) J Cereb Blood Flow Metab. 17:2643), and were maintained in vitro for 7 days before use. SAL at various concentrations was combined with 100 U/ml IFN-γ and added to the HOC cultures for 7 days. […] After 7 days of 100 U/ml IFN-γ exposure, the levels of MBP decreased approximately 80% in the HOCs (FIG. 29).

BIP, CHOP, p-eIF-2α = assay: ER stress markers in corpus callosum during remyelination (real time PCR, Western blot); format: in vivo; conditions: DOX− mice
Experimental: Repression of remyelination by IFN-γ is associated with ER stress. […] To determine whether IFN-γ interferes with endoplasmic reticulum (ER) function in remyelinating oligodendrocytes, the expression of ER stress markers was monitored in the corpus callosum of mice expressing IFN-γ. The study was performed using the transgenic mice described in Example 1.
The level of mRNA encoding ER stress associated genes binding immunoglobulin protein/78 KDa glucose regulated protein (BIP/GRP78) and the CAATT enhancer-binding protein homologous protein/growth and DNA damage protein 153 (CHOP/GADD153), was determined using real time PCR, as described in Example 1 in the corpus callosum of the cuprizone treated mice of Example 1. The probes, sense and antisense primers that were used were: […]
The level of phosphorylated eIF-2α, which inhibits nucleotide exchange on the eIF-2 complex and attenuates most protein synthesis, was analyzed by Western blot, and the expression was colocalized by immunostaining CC1 antibodies as described above. Western blot analysis was performed as follows. The corpus callosum from 3 mice was rinsed in ice cold phosphate-buffered saline (PBS) and pooled, and immediately homogenized in 5 volumes of Triton X-100 buffer (20 mM HEPES pH 7.5, 150 mM NaCl, 1% Triton X-100, 10% glycerol, 1 mM EDTA, 10 mM tetrasodium pyrophosphate, 100 mM NaF, 17.5 mM β-glycerophosphate, 10 mM phenylmethylsulfonyl fluoride, 15 μg/ml aprotonin, and 6 μg/ml pepstatin A) using a motorized homogenizer. After incubation on ice for 15 min, the extracts were cleared by centrifugation at 14,000 rpm twice for 30 min each. The protein content of each extract was […] by protein assay (Bio-Rad). The extracts (40 μg) were separated by sodium dodecyl sulfate-polyacrylamide gel electrophoresis and transferred to nitrocellulose. […] The following primary antibodies were used: anti-eIF-2α (1:500; Santa Cruz, Santa Cruz, Calif.), anti-p-eIF-2α (1:1000, Cell signaling Technology), anti-CHOP (1:500; Santa Cruz) and anti-actin (1:1000; Sigma, St Louis, Mo.).

corpus callosum = assay: Cuprizone remyelination in double transgenic mice on PERK+/+ or PERK+/− background; format: in vivo; conditions: for remyelinated axons: 9 weeks
From the text: The involvement of the ER stress response in the reduction caused by IFN-γ to remyelinate lesions was examined in transgenic mice that were generated to be heterozygous for a loss of function mutation in pancreatic ER kinase (PERK) (Harding, et al., (2001) Mol Cell 7:1153-1163), and to be temporally regulated for expressing INF-γ in the CNS. TRE/IFN-γ mice were first crossed with PERK+/− mice (Harding, et al. (2001) Mol. Cell 7: 1153-1163) on the C57BL/6 background to generate mice the carry the PERK mutation, and the resulting progeny were crossed to GFAP/tTA mice to obtain transgenic mice that were heterozygous for the PERK mutation. The effect of PERK on remyelination in the presence or absence of INF-γ was evaluated as evaluated as a function of the level of meylination of oligodendrocytes in remyelinating lesions and the number of oligodendrocytes present in the remyelinating lesion.
The extent of remyelination was assessed as described in the previous examples in the corpus callosum of PERK+/+ and PERK+/− mice that were made to express INF-γ (DOX−PERK+/+ and DOX−PERK+/−), and in mice in which the expression of INF-γ was repressed (DOX+PERK+/+ and DOX+PERK+/−). Remyelination was determined by electron microscopy, and was related to the number of CC1 positive oligodendrocytes and the level of caspase-3 expression in the corpus callosum of all animals. The level of caspase-3 was determined by immunohistochemical methods using anti capsase antibody (active-casoase-3 antibody, 1:50; Cel Signaling Technology) and according to the method described in Example 1. Demyelination was induced in six-week-old GFAP/tTA; TRE/IFN-γ double transgenic mice on a PERK+/− background that had been maintained on doxycycline, by simultaneously treating the mice with 0.2% cuprizone and releasing them from doxycycline (DOX−PERK+/−). Remyelination was allowed to occur by withdrawing cuprizone at week 6.

[3] = PERK+/+ background, listed as INF-γ
[4] = PERK+/+ background, peak of disease

“IFN-γ: pleotropic cytokine secreted by activated T lymphocytes and natural killer cells; delivered to the CNS by transgene or added as recombinant protein” was tested, and the Incidence of death ([1]; DOX− double mice) was 0/25, the “Mean of maximum clinical score (mean ± S.D.)” value ([1]; DOX− double mice) was 1.63 ± 0.51 and the “MBP mRNA in the spinal cord vs age-matched naïve mice” value ([1]; DOX− double mice, PID17) was “not significantly decreased”. The “Day of onset of disease (PID: postimmunization day)” value ([1]; DOX− double mice) was 14.7 ± 1.4, the “Incidence of hind limb paralysis” value ([1]; DOX− double mice, listed as INF-γ) was 2 of 25 and 2/25 and the Incidence of death ([1]; DOX− triple mice (PERK+/−)) was 3/25. For the same substance, the “Incidence of hind limb paralysis” value ([1]; DOX− triple mice (PERK+/−)) was 18/25, the “Mean of maximum clinical score (mean ± S.D.)” value ([1]; DOX− triple mice (PERK+/−)) was 2.71 ± 1.11 and the “Day of onset of disease (PID: postimmunization day)” value ([1]; DOX− triple mice (PERK+/−)) was 13.6 ± 0.8. For the same substance, the “CD3 positive T cell infiltration in the spinal cord” value ([1]; EAE onset) was “did not significantly affect”, the “CD11b positive monocyte infiltration in the spinal cord” value ([1]; EAE onset) was “increased” and the “PERK-eIF2α pathway in oligodendrocytes (p-PERK, p-eIF2α colocalization with CC1)” value ([1]; EAE onset) was “markedly activated”. For the same substance, the “expression of iNOs, TNF-a, IL-2, IL-12 and IL-10 in the spinal cord (real time PCR)” value ([1]; EAE onset, PID14) was “strongly enhanced”, the “expression of iNOs, TNF-a, IL-2, IL-12 and IL-10 in the spinal cord (real time PCR)” value ([1]; EAE onset, PID14, listed as INF-γ) was “increased” and the “CD3 T cell infiltration in the lumbar spinal cord” value ([1]; PERK+/+ background) was “reduced”. For the same substance, the “EAE-induced demyelination: myelin, axons and oligodendrocytes in the lumbar spinal cord” value ([1]; PERK+/+ background) was “protected”, the “CD3 T cell infiltration in the lumbar spinal cord” value [1, 3] was “lower” and the “EAE-induced demyelination: myelin, axons and oligodendrocytes in the lumbar spinal cord” value [1, 3] was “remained almost intact”. The “expression of IL-2 in spinal cord” value [1, 4] was “decreased”, the “expression of IL-12 in spinal cord” value [1, 4] was “decreased” and the “expression of IL-23 in spinal cord” value [1, 4] was “decreased”. For the same substance, the “expression of IL-2 and IL-5 in the spinal cord (real time PCR)” value ([1]; PID14) was “did not affect”, the “amelioration of EAE” value ([1]; mice heterozygous for the PERK mutation) was “did not ameliorate” and the “CD11b positive monocyte infiltration” value ([1]; peak of disease) was “did not change”. The “expression of IL-5 in spinal cord” value ([1]; peak of disease) was “did not significantly affect”, the “expression of IL-10 in spinal cord” value ([1]; peak of disease) was “did not significantly affect” and the “expression of iNOs or TNF-γ” value ([1]; peak of disease) was “did not significantly affect”. The “decrease of MBP levels in the HOCs” value [2] was “approximately 80%”, the “BIP mRNA increase vs control DOX+” value (BIP, CHOP, p-eIF-2α) was “approximately 2 fold” and the “CHOP mRNA increase vs control DOX+” value (BIP, CHOP, p-eIF-2α) was “approximately 2 fold”. For the same substance, the “CHOP protein elevation (Western blot)” value (BIP, CHOP, p-eIF-2α) was “approximately 1.7 fold”, the “phosphorylated eIF-2α elevation (Western blot)” value (BIP, CHOP, p-eIF-2α) was “approximately 1.8 fold” and the remyelinated axons (corpus callosum; DOX−PERK+/+) was 31.1%±7.6%. The CC1 positive oligodendrocytes (corpus callosum; DOX−PERK+/+, week 9) was 123.2±27.5 /0.04 mm^2, the remyelinated axons (corpus callosum; DOX−PERK+/−) was 15.6%±7.6% and the “caspase-3 positive oligodendrocytes, DOX−PERK+/− relative to DOX−PERK+/+” value (corpus callosum; week 9) was 2.3 times.
